Measured values as given in US11414429B2, “Compound or pharmaceutically acceptable salt thereof” (RIKEN, priority 2016, dated 2022).

Key:
tankyrase 2 (TNKS 2) = target: T1, tankyrase 2 (TNKS 2) (Homo sapiens, UniProt Q9H2K2); assay: Tankyrase inhibitory activity test (ELISA, self-polyADP ribosylation), tankyrase 2; format: biochemical; details: ELISA, self-polyADP ribosylation; class symbols; read-out: TNKS2 (inhibitory activity against tankyrase 2, IC50 value)
T1 construct: 613-1, 116aa; made in house; host or cells: cell-free protein synthesis system
Procedure, shortened: (§1)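 Flag-tagged TNKS1 (1,024-1,327aa, SAM+PARP) and TNKS2 (613-1,116aa, ANK5+SAM+PARP) were made cell-free and captured overnight at 4 °C on anti-FLAG M2 plates. After 10 min compound preincubation in Tris pH 8.0/MgCl2/DTT buffer, NAD (225 μM) plus biotin-NAD (25 μM) solution was added for 45 min at 30 °C. Auto-PARylation was read by streptavidin-HRP chemiluminescence, giving IC50 from residual activity.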

tankyrase 1 (TNKS 1) = target: T2, tankyrase 1 (TNKS 1) (Homo sapiens, UniProt O95271); assay: Tankyrase inhibitory activity test (ELISA, self-polyADP ribosylation), tankyrase 1; format: biochemical; details: ELISA, self-polyADP ribosylation; class symbols; read-out: TNKS1 (inhibitory activity against tankyrase 1, IC50 value)
T2 construct: 1,024-1,327aa; made in house; host or cells: cell-free protein synthesis system
Procedure, shortened: as §1

[1] = test system: human colorectal cancer cell line, COLO-320DM; assay: Cell proliferation inhibitory activity test (Celltiter-Glo Luminescent Cell Viability Assay); format: cell-based; details: COLO-320DM cells, 96 hours, class symbols, read-out: COLO-320 DM (cell proliferation inhibitory activity, GI50 value)
Procedure, shortened: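 Cells grown in RPMI-1640 with 10% FBS and 2 mM glutamine, seeded overnight, then exposed to compound (1% DMSO final) for 96 h at 37° C., 5% CO2. Viability read by ATP luminescence; GI50 is the concentration reducing cell growth to 50% of DMSO control.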

T1 sequence (Q9H2K2 613-1166): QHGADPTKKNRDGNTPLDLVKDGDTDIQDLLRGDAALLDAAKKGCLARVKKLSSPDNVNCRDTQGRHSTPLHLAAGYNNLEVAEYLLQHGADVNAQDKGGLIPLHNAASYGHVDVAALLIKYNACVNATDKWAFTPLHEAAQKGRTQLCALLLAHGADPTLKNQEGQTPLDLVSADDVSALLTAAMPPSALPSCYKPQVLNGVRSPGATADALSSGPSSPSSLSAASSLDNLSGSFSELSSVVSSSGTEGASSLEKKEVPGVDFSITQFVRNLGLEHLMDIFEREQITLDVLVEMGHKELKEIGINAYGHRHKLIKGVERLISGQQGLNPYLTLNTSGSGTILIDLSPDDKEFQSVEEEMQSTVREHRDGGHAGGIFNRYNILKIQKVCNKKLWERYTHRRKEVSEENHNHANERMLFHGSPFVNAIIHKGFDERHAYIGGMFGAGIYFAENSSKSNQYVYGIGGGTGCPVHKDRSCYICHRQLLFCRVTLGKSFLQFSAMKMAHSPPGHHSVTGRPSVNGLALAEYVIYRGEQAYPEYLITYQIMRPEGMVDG
T2 sequence (O95271 1024-1327): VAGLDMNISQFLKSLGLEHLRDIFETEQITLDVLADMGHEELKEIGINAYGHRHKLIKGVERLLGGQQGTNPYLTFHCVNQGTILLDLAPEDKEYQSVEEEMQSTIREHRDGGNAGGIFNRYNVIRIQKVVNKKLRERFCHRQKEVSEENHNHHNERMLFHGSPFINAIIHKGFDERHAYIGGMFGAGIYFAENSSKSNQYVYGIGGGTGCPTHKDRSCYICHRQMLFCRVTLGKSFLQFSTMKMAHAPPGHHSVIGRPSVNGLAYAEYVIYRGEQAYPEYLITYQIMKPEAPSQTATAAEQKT

IC50 (tankyrase 2 (TNKS 2)) [µM] | IC50 (tankyrase 1 (TNKS 1)) [µM] | GI50 [1] [µM] | SMILES
< 0.02 | < 0.02 | 0.1 to 0.6 | CC(=O)NS(=O)(=O)COc1cc(F)c2c(c1)N(C)C(=O)C21CCN(c2nc3c(c(=O)[nH]2)CCCN3C)CC1 [Example 456, N-[[4-fluoro-1-meth-yl-1′-(8-methyl-4-oxo-3,4,5,6,7,8-hexahydropyrido [2,3-d]pyrimidin-2-yl)-2-oxospiro [indole-3,4′-piperi-dine]-6-yl]oxymeth-ylsulfonyl]aceta-mide]
0.02 to 0.2 | 0.02 to 0.2 | 0.6 to 1 | CN1CCCc2c1nc(N1CCC3(CC1)C(=O)N(C)c1cc(N4CCNCC4)cc(F)c13)[nH]c2=O [Example 457, 4-fluoro-1-methyl-1′-(8-methyl-4-oxo-3,4,5,6,7,8-hexahydropyrido [2,3-d]pyrimidin-2-yl)-6-piperazin-1-yl-spiro[indole-3,4′-piperidine]-2(1H)-one]
< 0.02 | 0.02 to 0.2 | 0.1 to 0.6 | CN1CCCc2c1nc(N1CCC3(CC1)C(=O)N(C)c1cc(N4CCN(S(=O)(=O)N(C)C)CC4)cc(F)c13)[nH]c2=O [Example 458, 4-[4-fluoro-1-meth-yl-1′-(8-methyl-4-oxo-3,4,5,6,7,8-hexahydropyrido [2,3-d]pyrimidin-2-yl)-2-oxospiro [indole-3,4′-piperi-dine]-6-yl]-N,N-di-methylpiperazine-1-sulfonamide]
0.02 to 0.2 | 0.02 to 0.2 | 0.1 to 0.6 | CN1CCCc2c1nc(N1CCC3(CC1)C(=O)N(C)c1cc(N4CC(=O)N(Cc5ccccc5)C(=O)C4)cc(F)c13)[nH]c2=O [Example 459, 1-benzyl-4-[4-fluoro-1-methyl-1′-(8-methyl-4-oxo-3,4,5,6,7,8-hexa-hydropyrido[2,3-d]pyrimidin-2-yl)-2-oxospiro[indole-3,4′-piperidine]-6-yl]piperazine-2,6-dione]
< 0.02 | < 0.02 | 0.1 to 0.6 | CN1CCCc2c1nc(N1CCC3(CC1)C(=O)N(C)c1cc(N4CCN(C(=O)CO)CC4)cc(F)c13)[nH]c2=O [Example 460, 4-fluoro-6-[4-(2-hydroxyacetyl)piperazin-1-yl]-1-meth-yl-1′-(8-methyl-4-oxo-3,4,5,6,7,8-hexahydropyrido [2,3-d]pyrimidin-2-yl)spiro[indole-3,4′-piperidine]-2-one]
< 0.02 | < 0.02 | < 0.1 | CN1CCCc2c1nc(N1CCC3(CC1)C(=O)N(C)c1cc(N4CCN(S(C)(=O)=O)CC4)cc(F)c13)[nH]c2=O [Example 461, 4-fluoro-1-methyl-1′-(8-methyl-4-oxo-3,4,5,6,7,8-hexahydropyrido[2,3-d]pyrimidin-2-yl)-6-(4-methylsulfonylpiperazin-1-yl)spiro[indole-3,4′-piperidine]-2(1H)-one]
< 0.02 | 0.02 to 0.2 | < 0.1 | COC(=O)N1CCN(c2cc(F)c3c(c2)N(C)C(=O)C32CCN(c3nc4c(c(=O)[nH]3)CCCN4C)CC2)CC1 [Example 462, methyl 4-[4-fluoro-1-methyl-1′-(8-methyl-4-oxo-3,4,5,6,7,8-hexahydropyrido[2,3-d]pyrimidin-2-yl)-2-oxospiro[indole-3,4′-piperidine]-6-yl]piperazine-1-carboxylate]
< 0.02 | < 0.02 | < 0.1 | C[C@@H]1CN(c2cc(F)c3c(c2)N(C)C(=O)C32CCN(c3nc4c(c(=O)[nH]3)CCCN4C)CC2)C[C@H](C)O1 [Example 463, 6-[cis-2,6-dimethylmorpholin-4-yl]-4-fluoro-1′-(8-methyl-4-oxo-3,4,5,6,7,8-hexahydropyrido[2,3-d]pyrimidin-2-yl)-1-methyl-spiro[indole-3,4′-piperidine]-2(1H)-one]
< 0.02 | < 0.02 | 0.1 to 0.6 | CN1CCCc2c1nc(N1CCC3(CC1)C(=O)N(C)c1cc(N4CCC(S(C)(=O)=O)CC4)cc(F)c13)[nH]c2=O [Example 464, 4-fluoro-1-methyl-1′-(8-methyl-4-oxo-3,4,5,6,7,8-hexahydropyrido[2,3-d]pyrimidin-2-yl)l-6-(4-methylsulfonylpiperidin-1-yl)spiro[indole-3,4′-piperidine]-2(1H)-one]
